The values below come from ChEMBL document CHEMBL5120979, “Oral Nonpeptidic, Noncovalent Triazine Coronavirus Main Protease Inhibitors for Treating COVID-19” (ACS Med Chem Lett, 2022).

Assay [1] relates to SARS-CoV-2. Nature of the assay: Antiviral activity against SARS-CoV-2 infected in African green monkey VeroE6 cells expressing TMPRSS2. The class given is functional, organism-based. To be noted: Severe acute respiratory syndrome coronavirus 2, Vero C1008.
In assay [2] the target is Replicase polyprotein 1ab (Severe acute respiratory syndrome coronavirus 2, UniProt P0DTD1). The assay is described as follows: Inhibition of recombinant SARS-CoV-2 main protease usingDABCYLKTSAVLQSGFRKME(EDANS)-NH2 fluorogenic peptide substrate by FRET assay.

For orientation: EC50 means the midpoint of the concentration-response curve. For `Cn1cc2cc(Nc3nc(=O)n(Cc4cc(Cl)ccn4)c(=O)n3Cc3cc(F)c(F)cc3F)c(Cl)cc2n1`, the EC50 in assay [1] came to 1520 nM.
The IC50 is the concentration at which inhibition is half-maximal. As for `Cn1cnc(Cn2c(=O)nc(Nc3cc4cn(C)nc4cc3Cl)n(Cc3cc(F)c(F)c(F)c3)c2=O)c1`, in assay [2], the IC50 is 6 nM. In assay [1], this molecule registered an EC50 of 1030 nM.
The molecule `Cn1cnc(Cn2c(=O)nc(Nc3cc4cn(C)nc4cc3Cl)n(Cc3cccc4ccccc34)c2=O)n1` registered an EC50 in assay [1] of 22500 nM.
The same measure, in the same setting: the value for `Cn1cnc(Cn2c(=O)nc(Nc3cc4c(F)n(C)nc4cc3Cl)n(Cc3cc(F)c(F)cc3F)c2=O)n1` was 750 nM; that for `Cn1cnc(Cn2c(=O)nc(Nc3cc4cn(C)nc4cc3Cl)n(Cc3cc(F)c(F)c(F)c3)c2=O)n1` was 450 nM.
As for `Cn1cnc(Cn2c(=O)nc(Nc3cc4cn(C)nc4cc3Cl)n(Cc3cc(Cl)c(F)c(Cl)c3)c2=O)n1`, in assay [2], the IC50 stood at 5 nM. It took 750 nM to reach a half-maximal effect in assay [1] (EC50).
With `Cc1cncc(-n2c(=O)nc(Nc3cc4cn(C)nc4cc3Cl)n(Cc3cc(F)c(F)cc3F)c2=O)c1`, in assay [1], a half-maximal effect (EC50) was put at 131 nM.
Regarding `Cn1cnc(Cn2c(=O)nc(Nc3cc4cn(C)nc4cc3Cl)n(Cc3cc(F)c(F)c(F)c3F)c2=O)n1`, the half-inhibitory concentration (IC50) in assay [2] was found to be 10 nM. The same molecule came in with an EC50 in assay [1] of 395 nM.
As to `Cn1cnc(Cn2c(=O)nc(Nc3cc4cn(CC(F)F)nc4cc3Cl)n(Cc3cc(F)c(F)cc3F)c2=O)n1`, the 50% inhibitory concentration (IC50) in assay [2] is 9 nM. In assay [1], the response was half-maximal at 342 nM (EC50).
`CCn1cc2cc(Nc3nc(=O)n(Cc4ncn(C)n4)c(=O)n3Cc3cc(F)c(F)cc3F)c(Cl)cc2n1` had an EC50 in assay [1] of 533 nM.
The molecule `Cc1cnc(Cn2c(=O)nc(Nc3cc4cn(C)nc4cc3Cl)n(Cc3cc(F)c(F)cc3F)c2=O)nc1` returned a 50% effective concentration (EC50) in assay [1] of 5850 nM.
`Cn1cc2cc(Nc3nc(=O)n(-c4cncc5c4COC5)c(=O)n3Cc3cc(Cl)c(F)cc3F)c(Cl)cc2n1` showed an EC50 in assay [1] of 680 nM.
On the same count and under the same terms, the value for `Cc1cncc(-n2c(=O)nc(Nc3cc4cn(C)nc4cc3Cl)n(Cc3cc(F)c(F)c(F)c3)c2=O)c1` was 177 nM; that for `Cn1cc2cc(Nc3nc(=O)n(-c4cncc(C(F)(F)F)c4)c(=O)n3Cc3cc(F)c(F)c(F)c3)c(Cl)cc2n1` was 6600 nM.
For the molecule `Cc1cncc(-n2c(=O)nc(Nc3cc4cn(C)nc4cc3Cl)n(Cc3cc(C#N)c(F)cc3C)c2=O)c1`, in assay [2], the concentration for half-maximal inhibition (IC50) worked out at 2 nM. This molecule also showed an EC50 in assay [1] of 35 nM.
The molecule `CCNC(=O)Cn1c(=O)nc(Nc2cc3cn(C)nc3cc2Cl)n(Cc2cc(F)c(F)c(F)c2)c1=O` came in with a concentration giving a half-maximal response (EC50) in assay [1] of 11500 nM.
With `Cn1cc2cc(Nc3nc(=O)n(Cc4cc5ccsc5[nH]c4=O)c(=O)n3Cc3cc(F)c(F)c(F)c3)c(Cl)cc2n1`, the IC50 in assay [2] is 4 nM. Also, the EC50 in assay [1] is 321 nM.
For `Cn1cnc(Cn2c(=O)nc(NC3=CC4CCOC4C=C3Cl)n(Cc3cc(F)c(F)c(F)c3)c2=O)n1` (stereo not given), in assay [2], the IC50 is 15 nM. Besides, in assay [1], the EC50 turned out to be 385 nM.
